Read-outs that look alike come from different tables or passages of the source.
How the values were obtained:
HIV-1 (RF) = test: Antiviral drug assay in CEM-SS cells infected with HIV-1 RF (efficacy, tetrazolium reduction); type: cell-based; details: for Efficacy % CC (cell control): CEM-SS, HIV-1 (RF), day 6; for EC50: read-out: 50% effective concentration (EC50)
Method: Antiviral Drug Assay in CEM-SS Cells
(§1) This assay was used to test the effectiveness of anti-HIV drug monotherapy in the established T-cell line CEM-SS infected with HIV-1RF, HIV-1IIIb, HIV-2ROD, or other cytolytic variants of HIV. The antiviral agent and control (known antiviral drug—AZT) efficacy and cytotoxicity were determined by the metabolic reduction of the tetrazolium salt MTS (available from Promega).
(§2) The drugs were solubilized in DMSO (dimethyl sulfoxide). Three to ten vials of the antiviral agent and AZT were prepared and maintained at −70° C. CEM-SS cells were in logarithmic growth phase at the time of experimentation. Virus (HIV-1RF) stocks that past the necessary quality controls (killing effect on the type of cells used, limited variability, etc) were thawed and maintained on ice until required for addition.
(§3) Half-log serial dilutions of the antiviral agent or compound of the invention, H2K1001 (90i), were made in tissue culture media (RPMI 1640 without phenol red, supplemented with 10% heat inactivated fetal bovine serum, 1% L-Glutamine, 1% Pen/Strep and 50 ug/ml gentimycin). Virus, cell, drug and diluent (ethanol) controls were included for these tests. Virus was added after cells and drugs were mixed. Cell, drug, and virus containing cultures were incubated for six (6) days without additional feeding at which time the cultures were evaluated macrosopically and microscopically for cell toxicity, and the tetrazolium salt MTS was added for quantitation by the colorimetric determination of formazan production (optical density).
(§4) Drug efficacy and cytotoxicity effects were determined six days after infection by the metabolic reduction of the tetrazolium salt XTT to its' formazan by surviving cells and was quantitated by determination of optical density at 450 nm with background subtraction at 650 nm (Tables 1–4).
(§5) The drug plate analysis reports from this assay are provided below in Tables 1–4. Calculated endpoints (EC50, etc.) were determined using Cho and Cho Median Effect Equation (Daids Virology Manual for HIV Laboratories, Compiled by The Division of Aids, National Institute of Allergy and Infectious Diseases, National Institutes of Health and Collaborating Investigators, Version January 1997).

susceptible isolates = test: AZT in studies of susceptible isolates in PBMCs; type: cell-based, HIV-1; details: typical value
Method: Testing in PBMCs was directed against a primary clinical isolate of HIV-1 P2, which is resistant to a variety of non-nucleoside inhibitors or HIV-1 reverse transcriptase and, in our hands, AZT. Testing AZT (control) against this virus, as expected, produced a relatively high EC50 of 3 uM. Typically AZT produces EC50s of less than 0.01 uM in studies of susceptible isolates in PBMCs.

HIV-1 (P2) = test: Antiviral drug assay in PBMC infected with clinical isolate HIV-1 P2 (supernatant p24 ELISA); type: cell-based; details: for Efficacy % p24 Reduction: HIV-1 P2, day 7
Method: (§6) This assay was used to test the effectiveness of anti-HIV drug monotherapy in peripheral blood mononuclear cells (PBMC) infected with clinical isolates of HIV-1. Drug efficacy was determined by the production of supernatant HIV-1 p24. Drug-induced cytotoxicity was determined by the metabolic reduction of tetrazolium salts (MTS; Promega).
(§7) The antiviral drug or agent of the invention, H2K-1001 (90i), was solubilized. PBMCs, stimulated with PHA (phytohemagglutinin) for three days were employed throughout. Virus stocks (U.S. Clinical isolates) grown in PBMCs only, that past the necessary quality controls (i.e., replicate to high titer in PBMCs and meet the requirements as to genotype and phenotype) were rapidly thawed and maintained on ice until required for infection.
(§8) Half-log serial dilutions of test drugs and controls were prepared in tissue culture media (RPMI 1640 without phenol red, supplemented with 10% heat inactivated fetal bovine serum, 1% L-Glutamine, 1% Pen/Strep and 50 μg/ml gentamicin). Virus and cell controls were included on each test plate. Virus was added after cells and drugs were mixed. Cell, drug and virus containing cultures were incubated for seven (7) days with an interim feeding at day three or four.
(§9) Supernatants were sampled at seven days for p24 determination by antigen capture ELISA. Cytotoxicity was measured by the metabolic reduction of the tetrazolium salt according to the manufacturer's (Promega) recommendations.
(§10) The drug analysis reports from these studies are provided below in Tables 7–10. Efficacy (EC50) and viability (IC50) determinations were made using Cho and Cho Median Effect Equation, as noted above. Efficacy is expressed as the 50% effective concentration (EC50) and drug induced toxicity as the 50% inhibitory concentration (IC50).

[1] = test system: CEM-SS T-lymphoblastoid cells; test: Toxicity testing in CEM-SS T-lymphoblastoid cells (tetrazolium reduction); type: cell-based; details: for Toxicity % CC (cell control): day 6; for IC50: read-out: 50% inhibitory concentration, IC50 (drug induced toxicity)
Method: as §1, §2, §3, §4, §5

[2] = test system: peripheral blood mononuclear cells (PBMC); test: Toxicity testing in PBMC (tetrazolium MTS reduction); type: cell-based
Method: as §6, §7, §8, §9, §10

## Cc1cn([C@H]2C[C@H](N=[N+]=[N-])[C@@H](CO)O2)c(=O)[nH]c1=O [AZT, reference compound]
HIV-1 (RF); 0.001 uM
  Efficacy % CC (cell control): 42%
HIV-1 (RF); 0.003 uM
  Efficacy % CC (cell control): 44%
HIV-1 (RF); 0.01 uM
  Efficacy % CC (cell control): 90%
HIV-1 (RF); 0.03 uM
  Efficacy % CC (cell control): 83%
HIV-1 (RF); 0.1 uM
  Efficacy % CC (cell control): 85%
HIV-1 (RF); 0.3 uM
  Efficacy % CC (cell control): 82%
HIV-1 (RF); 1 uM
  Efficacy % CC (cell control): 90%
HIV-1 (RF); 3 uM
  Efficacy % CC (cell control): 82%
HIV-1 (RF); 10 uM
  Efficacy % CC (cell control): 87%
HIV-1 (RF); CEM-SS cells, HIV-1 RF
  EC50: ~3.5 nM
Susceptible isolates
  EC50: < 10 nM
HIV-1 (P2); 0.001 uM
  Efficacy % p24 Reduction: 12%
HIV-1 (P2); 0.003 uM
  Efficacy % p24 Reduction: 21%
HIV-1 (P2); 0.01 uM
  Efficacy % p24 Reduction: 14%
HIV-1 (P2); 0.03 uM
  Efficacy % p24 Reduction: 10%
HIV-1 (P2); 0.10 uM
  Efficacy % p24 Reduction: 20%
HIV-1 (P2); 0.32 uM
  Efficacy % p24 Reduction: 26%
HIV-1 (P2); 1 uM
  Efficacy % p24 Reduction: 22%
HIV-1 (P2); 3 uM
  Efficacy % p24 Reduction: 51%
HIV-1 (P2); 10 uM
  Efficacy % p24 Reduction: 77%
HIV-1 (P2); clinical isolate HIV-1 P2, read-out: EC50
  EC50: 3000 nM
[1]; 0.001 uM, CEM-SS
  Toxicity % CC (cell control): 93%
[1]; 0.003 uM, CEM-SS
  Toxicity % CC (cell control): 100%
[1]; 0.01 uM, CEM-SS
  Toxicity % CC (cell control): 109%
[1]; 0.03 uM, CEM-SS
  Toxicity % CC (cell control): 104%
[1]; 0.1 uM, CEM-SS
  Toxicity % CC (cell control): 102%
[1]; 0.3 uM, CEM-SS
  Toxicity % CC (cell control): 102%
[1]; 1 uM, CEM-SS
  Toxicity % CC (cell control): 96%
[1]; 3 uM, CEM-SS
  Toxicity % CC (cell control): 95%
[1]; 10 uM, CEM-SS
  Toxicity % CC (cell control): 95%
[1]; CEM-SS cells
  IC50: > 10000 nM
[2]; 0.001 uM
  Toxicity % CC (cell control): 100%
[2]; 0.003 uM
  Toxicity % CC (cell control): 111%
[2]; 0.01 uM
  Toxicity % CC (cell control): 100%
[2]; 0.03 uM
  Toxicity % CC (cell control): 99%
[2]; 0.10 uM
  Toxicity % CC (cell control): 101%
[2]; 0.32 uM
  Toxicity % CC (cell control): 99%
[2]; 1 uM
  Toxicity % CC (cell control): 105%
[2]; 3 uM
  Toxicity % CC (cell control): 105%
[2]; 10 uM
  Toxicity % CC (cell control): 104%

## O=C(OCCOCCOC(=O)c1ccccc1)c1ccccc1 [H2K1001 (90i), diethylene glycol dibenzoate]
HIV-1 (RF); 0.01 ug/ml
  Efficacy % CC (cell control): 42%
HIV-1 (RF); 0.03 ug/ml
  Efficacy % CC (cell control): 80%
HIV-1 (RF); 0.1 ug/ml
  Efficacy % CC (cell control): 87%
HIV-1 (RF); 0.3 ug/ml
  Efficacy % CC (cell control): 83%
HIV-1 (RF); 1 ug/ml
  Efficacy % CC (cell control): 84%
HIV-1 (RF); 3 ug/ml
  Efficacy % CC (cell control): 84%
HIV-1 (RF); 10 ug/ml
  Efficacy % CC (cell control): 82%
HIV-1 (RF); 33 ug/ml
  Efficacy % CC (cell control): 86%
HIV-1 (RF); 100 ug/ml
  Efficacy % CC (cell control): 88%
HIV-1 (RF); CEM-SS cells, HIV-1 RF, listed as 90i
  50% effective concentration (EC50): approximately 0.020 ug/ml
HIV-1 (RF); Human immunodeficiency virus 1, CEM-SS, CEM-SS cells, HIV-1 RF
  EC50: 0.02 µg/mL
HIV-1 (P2); 0.01 ug/ml
  Efficacy % p24 Reduction: 23%
HIV-1 (P2); 0.03 ug/ml
  Efficacy % p24 Reduction: 25%
HIV-1 (P2); 0.10 ug/ml
  Efficacy % p24 Reduction: 36%
HIV-1 (P2); 0.33 ug/ml
  Efficacy % p24 Reduction: 36%
HIV-1 (P2); 1 ug/ml
  Efficacy % p24 Reduction: 53%
HIV-1 (P2); 3 ug/ml (3.2 in Table 11)
  Efficacy % p24 Reduction: 87%
HIV-1 (P2); 10 ug/ml
  Efficacy % p24 Reduction: 95%
HIV-1 (P2); 32 ug/ml
  Efficacy % p24 Reduction: 94%
HIV-1 (P2); 100 ug/ml
  Efficacy % p24 Reduction: 93%
HIV-1 (P2); Human immunodeficiency virus 1, PBMC, clinical isolate HIV-1 P2, read-out: 50% effective concentration (EC50)
  EC50: 0.8 µg/mL
HIV-1 (P2); clinical isolate HIV-1 P2, listed as 90i
  50% effective concentration (EC50): approximately 0.8 ug/ml
[1]; 0.01 ug/ml, CEM-SS
  Toxicity % CC (cell control): 100%
[1]; 0.03 ug/ml, CEM-SS
  Toxicity % CC (cell control): 103%
[1]; 0.1 ug/ml, CEM-SS
  Toxicity % CC (cell control): 104%
[1]; 0.3 ug/ml, CEM-SS
  Toxicity % CC (cell control): 100%
[1]; 1 ug/ml, CEM-SS
  Toxicity % CC (cell control): 100%
[1]; 3 ug/ml, CEM-SS
  Toxicity % CC (cell control): 99%
[1]; 10 ug/ml, CEM-SS
  Toxicity % CC (cell control): 93%
[1]; 33 ug/ml, CEM-SS
  Toxicity % CC (cell control): 94%
[1]; 100 ug/ml, CEM-SS
  Toxicity % CC (cell control): 106%
[1]; CEM-SS cells, listed as 90i
  50% inhibitory concentration, IC50 (drug induced toxicity): > 100 µg/mL
[1]; Homo sapiens, CEM-SS
  IC50: > 100 µg/mL
[2]; 0.01 ug/ml
  Toxicity % CC (cell control): 94%
[2]; 0.03 ug/ml
  Toxicity % CC (cell control): 103%
[2]; 0.10 ug/ml
  Toxicity % CC (cell control): 91%
[2]; 0.33 ug/ml
  Toxicity % CC (cell control): 94%
[2]; 1 ug/ml
  Toxicity % CC (cell control): 97%
[2]; 3 ug/ml (3.2 in Table 11)
  Toxicity % CC (cell control): 94%
[2]; 10 ug/ml
  Toxicity % CC (cell control): 100%
[2]; 32 ug/ml
  Toxicity % CC (cell control): 104%
[2]; 100 ug/ml
  Toxicity % CC (cell control): 111%
[2]; no unit printed, read-out: IC50 (drug induced toxicity)
  IC50: > 100 µg/mL
[2]; read-out: 50% inhibitory concentration, IC50 (drug induced toxicity)
  IC50: > 100 µg/mL

From patent publication US7144922B2, “Method and compound for the prophylaxis or treatment of an immunodeficiency condition, such as AIDS” (priority 2002, dated 2006)
